Here are results for three compounds from patent US6552078B2, “6-methoxy-2-naphthylacetic acid prodrugs” (priority 1999, dated 2003).

Series [1] in a line: In Vitro Hydrolysis in Rat Plasma. Type of series: in vitro ADME.
A further series is described as follows: Chemical Hydrolysis. It counts as physicochemical.
The next series has as its system Rat Paw Edema. In words: Rat Paw Edema. Type of series: in vivo. To be noted: Dose (mg/kg): Example 11 80; Example 12 121.

As for `COc1ccc2cc(CC(=O)OCC(C)=O)ccc2c1` [Example 1, (6-methoxy-naphthalen-2-yl)-acetic acid 2-oxo-propyl ester], in series [1] (in ˜2 h, column head pH 3, read-out: In Vitro Hydrolysis in Rat Plasma: conversion to 6-MNA), the metabolised at 2 h is 21%. In addition, the half-life in the series “Chemical Hydrolysis” (pH 3) is above 25 h; in “Chemical Hydrolysis” (pH 7.4), 22 h; in the series “Chemical Hydrolysis” (pH 8), 7 h.

As for `COc1ccc2cc(CC(=O)NO)ccc2c1` [Example 11, N-Hydroxy-2-(6-methoxy-naphthalen-2-yl)-acetamide], in the series on Rat Paw Edema, the “Rat Paw Edema % Inhibition” value was 59.6%.

As to `COc1ccc2cc(CC(=O)OCCOCCO[N+](=O)[O-])ccc2c1` [Example 2, (6-Methoxy-naphthalen-2-yl)-acetic acid 2-(2-nitrooxy-ethoxy)-ethyl ester], the half-life in series [1] (column head pH 3, read-out: In Vitro Hydrolysis in Rat Plasma: T1/2) was above 5 min; in the series “Chemical Hydrolysis” (pH 3), above 300 h; in “Chemical Hydrolysis” (pH 7.4) it was around 280 h; in “Chemical Hydrolysis” (pH 8), around 280 h.
